# Measured values reported in ChEMBL document CHEMBL1201862, “PubChem BioAssay data set” (2004).
# Active and inactive are the calls of the source.
# What was measured:
# [1] = HEp-2 cell cytotoxicity, dose response, cytotoxicity control for RSV inhibitor project, HTS (AID 2410); format: functional; conditions: human respiratory syncytial virus
# [2] = biological target: Kallikrein-7 (Homo sapiens, UniProt P49862); test: Fluorescence Intensity-based biochemical primary high throughput dose response assay to identify activators of kallikrein-7 (K7) zymogen.
# [3] = biological target: T1, Galanin receptor type 3 (Homo sapiens, UniProt O60755); test: Fluorescence-based cell-based primary high throughput dose response assay to identify antagonists of the Galanin Receptor 3 (GalR3).; format: functional
# T1 sequence (O60755 whole entry): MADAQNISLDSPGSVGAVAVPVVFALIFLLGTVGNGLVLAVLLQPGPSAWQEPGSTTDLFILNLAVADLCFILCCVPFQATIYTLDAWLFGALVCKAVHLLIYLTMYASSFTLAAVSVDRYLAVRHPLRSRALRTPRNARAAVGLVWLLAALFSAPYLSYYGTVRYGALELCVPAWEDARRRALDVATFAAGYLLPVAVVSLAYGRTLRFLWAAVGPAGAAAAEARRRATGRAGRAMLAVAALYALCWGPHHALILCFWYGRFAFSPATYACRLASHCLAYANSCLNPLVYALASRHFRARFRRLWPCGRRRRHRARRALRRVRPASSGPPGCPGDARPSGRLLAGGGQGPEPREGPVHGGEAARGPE
# [4] = cells; format: functional, cell-based; conditions: HEK-CNG
# [5] = biological target: Paired box protein Pax-8 (Homo sapiens, UniProt Q06710); test: inhibitors of PAX8-driven TPO luciferase reporter, dose response, RMG-I cells, cherry-pick (AID 687027); format: functional, cell-based;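 also: luciferase reporter driven by Pax8 target thyroperoxidase promoter measured by SteadyGlo luminescence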
# [6] = PAX2 cell-based inhibition, dose response, selectivity assay for PAX8 inhibitor project, plate reader, dry powder samples (AID 743048); format: functional;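 also: HEK293 cells carrying a WT1 promoter luciferase reporter driven by expressed Pax2; potency is for inhibition of Pax2 driven reporter signal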
# [7] = NIH:OVCAR-3 ovarian cancer cell cytotoxicity, dose response, PAX8 inhibitor project, plate reader, dry powder samples (AID 743044); format: functional, cell-based
# [8] = PAX5 activity inhibitors, dose response, selectivity assay for PAX8 inhibitor project, cell-based, plate reader, dry powder samples (AID 743047); format: functional;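 also: HEK293 cells carrying a Pax5 driven CD19 promoter luciferase reporter; potency of inhibitors that lower reporter luminescence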
# [9] = cytotoxicity in COV434 cells, dose response, cytotoxicity control for PAX8 inhibitor project, cell-based, plate reader, dry powder, SA7 (AID 743145); format: functional
# [10] = cytotoxicity in OV-90 ovarian cancer cells, dose response, PAX8 inhibitor project, cell-based, plate reader, dry powder, SA8 (AID 743149); format: functional
# [11] = cytotoxicity dependent on PAX8, dose response, cell-based, plate reader, dry powder (AID 743049); format: functional
# [12] = biological target: T2, Methionyl-tRNA synthetase, putative (Trypanosoma brucei brucei, UniProt Q38C91); format: functional, Trypanosoma brucei brucei strain 927/4 GUTat10.1
# T2 sequence (Q38C91 whole entry): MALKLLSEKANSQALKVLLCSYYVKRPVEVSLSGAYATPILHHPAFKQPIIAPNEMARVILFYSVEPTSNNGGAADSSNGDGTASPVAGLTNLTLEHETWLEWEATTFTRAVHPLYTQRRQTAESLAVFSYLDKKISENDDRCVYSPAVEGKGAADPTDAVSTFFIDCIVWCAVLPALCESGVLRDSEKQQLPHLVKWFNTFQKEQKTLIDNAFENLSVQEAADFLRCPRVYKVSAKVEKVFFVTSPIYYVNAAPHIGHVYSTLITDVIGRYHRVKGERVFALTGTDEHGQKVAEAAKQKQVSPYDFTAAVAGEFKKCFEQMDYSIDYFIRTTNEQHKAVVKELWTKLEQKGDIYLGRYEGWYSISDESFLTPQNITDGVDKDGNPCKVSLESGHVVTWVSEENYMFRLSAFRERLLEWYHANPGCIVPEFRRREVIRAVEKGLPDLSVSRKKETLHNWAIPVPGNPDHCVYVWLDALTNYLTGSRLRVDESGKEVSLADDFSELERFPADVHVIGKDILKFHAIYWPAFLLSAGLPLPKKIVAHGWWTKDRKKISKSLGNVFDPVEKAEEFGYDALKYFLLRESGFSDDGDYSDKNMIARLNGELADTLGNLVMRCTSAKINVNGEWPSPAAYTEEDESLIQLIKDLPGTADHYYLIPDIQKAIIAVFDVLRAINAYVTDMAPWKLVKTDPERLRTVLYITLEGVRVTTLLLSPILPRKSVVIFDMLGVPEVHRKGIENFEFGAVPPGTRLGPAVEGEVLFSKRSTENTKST
# [13] = Counterscreen for inhibitors of Trypanosoma brucei methionyl tRNA synthetase (MetRS): Luminescence-based cell-based high throughput dose response assay to identify compounds that are cytotoxic to Jurkat human T lymphocyte cells.; format: functional
# [14] = biological target: T2, Methionyl-tRNA synthetase, putative; format: functional, Trypanosoma brucei brucei strain 927/4 GUTat10.1; remark: listed apart in the source
# [15] = biological target: Beta-galactosidase (Escherichia coli, UniProt Q8VNN2); test: Dose response counterscreen for EBI2 assay utilizing the enzyme, b-galactosidase.; format: functional
# [16] = inhibitors of PGC1a acetylation in cells, dose response, cell-based, cherry-picked samples (AID 720514); format: functional;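 also: potency may reflect raised or lowered acetylation signal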
# [17] = biological target: FAD-linked sulfhydryl oxidase ALR (Homo sapiens, UniProt P55789); test: inhibitors of human ALR sulfhydryl oxidase, dose response, biochemical, H2O2 detection, luminescence, cherry-pick (AID 493248)
# [18] = HeLa cell cytotoxicity, dose response, cytotoxicity control for MgcRacGAP inhibitor project (AID 624300); format: functional
# [19] = biological target: T3, Rac GTPase-activating protein 1 (Homo sapiens, UniProt Q9H0H5); test: MgcRacGAP GTPase-activating activity inhibitors, confirmation, biochemical, ADP Hunter fluorescence, primary and confirmatory (AID 624330); format: functional
# T3 sequence (Q9H0H5 whole entry): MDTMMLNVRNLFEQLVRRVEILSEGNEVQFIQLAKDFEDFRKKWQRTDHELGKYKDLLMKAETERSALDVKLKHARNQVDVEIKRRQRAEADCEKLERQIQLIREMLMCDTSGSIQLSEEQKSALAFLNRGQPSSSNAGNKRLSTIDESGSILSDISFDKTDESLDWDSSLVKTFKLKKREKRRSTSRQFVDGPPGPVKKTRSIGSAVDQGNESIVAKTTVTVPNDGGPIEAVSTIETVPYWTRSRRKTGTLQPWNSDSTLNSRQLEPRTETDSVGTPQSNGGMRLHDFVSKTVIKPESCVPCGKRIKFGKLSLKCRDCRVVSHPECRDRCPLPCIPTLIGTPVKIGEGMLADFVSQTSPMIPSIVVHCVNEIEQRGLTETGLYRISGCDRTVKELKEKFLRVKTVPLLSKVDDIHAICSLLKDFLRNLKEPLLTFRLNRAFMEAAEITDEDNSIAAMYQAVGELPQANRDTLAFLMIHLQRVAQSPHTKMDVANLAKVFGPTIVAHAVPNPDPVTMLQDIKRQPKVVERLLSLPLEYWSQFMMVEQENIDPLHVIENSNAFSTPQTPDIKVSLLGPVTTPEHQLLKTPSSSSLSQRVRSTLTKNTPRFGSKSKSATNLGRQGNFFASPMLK
# Chain of Kallikrein-7 (P49862 whole entry): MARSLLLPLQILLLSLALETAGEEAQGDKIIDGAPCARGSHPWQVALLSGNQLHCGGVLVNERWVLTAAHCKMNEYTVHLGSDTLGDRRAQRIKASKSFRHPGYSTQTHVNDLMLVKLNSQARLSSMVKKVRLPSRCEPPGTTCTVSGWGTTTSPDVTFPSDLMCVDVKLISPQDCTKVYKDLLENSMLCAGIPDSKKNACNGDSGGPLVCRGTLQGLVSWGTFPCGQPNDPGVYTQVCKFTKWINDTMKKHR
# Chain of Beta-galactosidase (Q8VNN2 whole entry): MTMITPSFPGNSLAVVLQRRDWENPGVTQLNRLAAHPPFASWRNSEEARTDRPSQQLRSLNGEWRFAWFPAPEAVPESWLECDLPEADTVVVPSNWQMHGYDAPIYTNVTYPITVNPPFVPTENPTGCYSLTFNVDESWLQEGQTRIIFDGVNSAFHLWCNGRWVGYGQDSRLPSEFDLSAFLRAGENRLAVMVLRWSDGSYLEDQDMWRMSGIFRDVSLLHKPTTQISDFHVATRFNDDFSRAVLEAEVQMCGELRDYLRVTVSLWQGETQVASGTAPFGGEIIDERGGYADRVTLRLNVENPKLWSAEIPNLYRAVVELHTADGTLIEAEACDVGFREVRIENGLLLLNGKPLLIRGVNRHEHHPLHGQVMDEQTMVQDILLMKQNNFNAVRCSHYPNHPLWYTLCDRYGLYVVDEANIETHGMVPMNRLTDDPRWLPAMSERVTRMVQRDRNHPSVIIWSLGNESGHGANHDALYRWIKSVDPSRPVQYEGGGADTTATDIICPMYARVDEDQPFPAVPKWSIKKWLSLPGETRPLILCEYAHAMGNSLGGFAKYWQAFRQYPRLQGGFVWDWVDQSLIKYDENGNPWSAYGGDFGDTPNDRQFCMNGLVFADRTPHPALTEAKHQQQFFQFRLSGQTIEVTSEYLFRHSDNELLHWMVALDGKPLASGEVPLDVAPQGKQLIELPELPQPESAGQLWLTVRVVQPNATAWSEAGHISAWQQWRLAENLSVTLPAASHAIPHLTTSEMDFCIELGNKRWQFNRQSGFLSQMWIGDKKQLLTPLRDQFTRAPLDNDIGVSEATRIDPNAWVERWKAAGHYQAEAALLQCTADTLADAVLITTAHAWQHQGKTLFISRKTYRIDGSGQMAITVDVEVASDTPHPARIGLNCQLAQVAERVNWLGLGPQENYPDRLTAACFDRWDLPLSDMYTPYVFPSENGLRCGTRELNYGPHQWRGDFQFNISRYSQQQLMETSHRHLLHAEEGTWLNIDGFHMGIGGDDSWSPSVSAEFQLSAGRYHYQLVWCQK
# Chain of FAD-linked sulfhydryl oxidase ALR (P55789 whole entry): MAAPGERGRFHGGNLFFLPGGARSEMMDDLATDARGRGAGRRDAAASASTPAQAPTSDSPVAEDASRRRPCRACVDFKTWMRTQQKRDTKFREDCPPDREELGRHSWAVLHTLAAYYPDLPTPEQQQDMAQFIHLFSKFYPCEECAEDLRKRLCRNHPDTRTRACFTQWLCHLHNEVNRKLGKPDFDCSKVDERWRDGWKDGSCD
# Chain of Paired box protein Pax-8 (Q06710 whole entry): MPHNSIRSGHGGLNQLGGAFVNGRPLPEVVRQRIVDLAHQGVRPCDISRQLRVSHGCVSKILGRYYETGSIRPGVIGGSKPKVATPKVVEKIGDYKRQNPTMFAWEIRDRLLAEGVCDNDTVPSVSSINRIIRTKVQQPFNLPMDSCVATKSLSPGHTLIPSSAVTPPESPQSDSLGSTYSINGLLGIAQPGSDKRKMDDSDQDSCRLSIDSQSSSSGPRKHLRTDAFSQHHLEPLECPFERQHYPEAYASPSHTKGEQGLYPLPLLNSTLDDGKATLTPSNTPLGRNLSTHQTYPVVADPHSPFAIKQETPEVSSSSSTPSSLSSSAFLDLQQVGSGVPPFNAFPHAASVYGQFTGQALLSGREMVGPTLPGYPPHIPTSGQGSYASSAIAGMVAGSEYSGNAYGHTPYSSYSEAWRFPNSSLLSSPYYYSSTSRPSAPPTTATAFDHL
smiles,measurement,setting,value
CCN(CC)c1ccc2c(C)c(CO)c(=O)oc2c1,CC50,[1],> 50 µM (active)
same,EC50,[2],6.34 µM (active)
CCCCC[C@H](O)/C=C/[C@H]1CCC(=O)[C@@H]1CCCCCCC(=O)N1CCCCC1CO (stereo partly drawn),IC50,[3],3.54 µM (active)
same,EC50,[4],> 29.9 µM (inactive)
Cc1ccc(S(=O)(=O)Nc2ccc3c(c2)nc(CCN2CCCC2)n3C)cc1,AC50,[5],5.89 µM (active)
same,AC50,[6],> 100 µM (inactive)
same,AC50,[7],34.1 µM (active)
same,AC50,[8],> 100 µM (inactive)
same,AC50,[9],26.4 µM (active)
same,AC50,[10],45.2 µM (active)
same,AC50,[11],50.6 µM (active)
CC(=O)NS(=O)(=O)c1ccc(NC(=O)/C=C/c2cn(-c3ccccc3)nc2-c2ccccc2)cc1,IC50,[12],49.8 µM (inactive)
same,IC50,[13],83.3 µM (inactive)
same,IC50,[14],12 µM (inactive)
CCOC(=O)c1cnc2c(C(=O)OC)cccc2c1NCc1ccco1,EC50,[2],> 69.5 µM (inactive)
O=C(/C=C/c1cccs1)N1CCC2(CC1)Oc1ccc(Cl)cc1C(=O)C21CC(c2ccccc2)=NO1 (stereo not drawn),IC50,[15],> 80 µM (inactive)
CC(C)CC#Cc1ccc([C@H]2[C@H](CO)N3C(=O)CN(C(=O)Nc4cc(F)ccc4F)C[C@@H]23)cc1,AC50,[16],27.6 µM (active)
COc1cc(/C=N/Nc2nc3ccccc3[nH]2)ccc1O,AC50,[17],1.16 µM (active)
same,IC50,[12],23.7 µM (inactive)
same,IC50,[13],83.3 µM (inactive)
same,IC50,[14],102 µM (inactive)
same,CC50,[18],100 µM (active)
same,IC50,[19],14 µM (active)
